Reference: patent US12157882B2, “Lactobacillus plantarum strain ATG-K2, ATG-K6 or ATG-K8, and composition for preventing or treating vaginitis comprising same” (ATOGEN CO., LTD, priority 2018, dated 2024)

Columns and labels:
Type in all cases: cell-based
[1] = system: Cronobacter sakazakii KCTC2949 (CS); experiment: Disc test, clear zone; conditions: 35 μl culture solution on 8 mm paper disc, disc diameter subtracted; average of four tests
Procedure: (§1) In order to confirm the antimicrobial functionality of K2, K6 and K8, the antimicrobial activity of lactic-acid bacteria K2, K6 and K8 against a total of seven types of infectious or opportunistic bacteria, including four types of gram-positive SA, LM, SM, and SS and three types of gram-negative EC, PA, and CS, was determined by measuring clear zones through a disc test. Seven types of bacteria cultured overnight in a BHI plate medium were each suspended in 1× phosphate-buffered saline (PBS) until OD600 of about 0.8 was obtained. Each suspension was absorbed with a sterile cotton swab, spread over an agar medium for an antimicrobial activity test for lactic-acid bacteria, in which BHI and MRS were mixed at a ratio of 1:1, and dried for about 3 min. Each 8 mm paper disc (Advantec, Japan) was attached to the dried test agar medium, and 35 μl of each of K2, K6, and K8 solutions cultured in an MRS broth for about 18 to 20 hr was inoculated to the paper disc, dried for about 3 min, cultured at 37° C. and observed. The size of the clear zone formed after culture was determined in a manner in which the diameter thereof was measured and was calculated after subtracting 8 mm, which is the diameter of the paper disc. The unit for the diameter of the clear zone, which is each numerical value in Table 4, is mm, and each abbreviation is as follows: Staphylococcus aureus KCTC1621 (SA), Listeria monocytogenes KCTC3569 (LM), Streptococcus mutans KCTC3065 (SM), Streptococcus salivarius ATG-P1 (SS), Escherichia coli KCTC1682 (EC), Pseudomonas aeruginosa KCTC2004 (PA), Cronobacter sakazakii KCTC2949 (CS).

[2] = system: Escherichia coli KCTC1682 (EC); experiment: Disc test, clear zone; conditions: 35 μl culture solution on 8 mm paper disc, disc diameter subtracted; average of four tests
Procedure: as §1

[3] = system: Listeria monocytogenes KCTC3569 (LM); experiment: Disc test, clear zone; conditions: 35 μl culture solution on 8 mm paper disc, disc diameter subtracted; average of four tests
Procedure: as §1

[4] = system: Pseudomonas aeruginosa KCTC2004 (PA); experiment: Disc test, clear zone; conditions: 35 μl culture solution on 8 mm paper disc, disc diameter subtracted; average of four tests
Procedure: as §1

[5] = system: Staphylococcus aureus KCTC1621 (SA); experiment: Disc test, clear zone; conditions: 35 μl culture solution on 8 mm paper disc, disc diameter subtracted; average of four tests
Procedure: as §1

[6] = system: Streptococcus mutans KCTC3065 (SM); experiment: Disc test, clear zone; conditions: 35 μl culture solution on 8 mm paper disc, disc diameter subtracted; average of four tests
Procedure: as §1

[7] = system: Streptococcus salivarius ATG-P1 (SS); experiment: Disc test, clear zone; conditions: 35 μl culture solution on 8 mm paper disc, disc diameter subtracted; average of four tests
Procedure: as §1

[8] = system: Candida albicans KCTC7678 (CA); experiment: Growth inhibition by cell-free culture supernatant (CFCS); conditions: CFCS at 1× concentration, culture for 24 hr, OD600
Procedure: (§2) In order to measure the activity of the lactic-acid bacteria culture solution on inhibiting the growth of vaginitis pathogens, a 10-fold-concentrated cell-free culture supernatant (CFCS) was prepared. The culture solution of each of K2, K6 and K8 lactic-acid bacteria was centrifuged at 4,000 rpm for 25 min, thereby separating the cells of the lactic-acid bacteria and the culture supernatant from each other. The culture supernatant was filtered using a 0.2 μm pore syringe filter (Sartorius, Germany). The filtered culture supernatant was lyophilized and suspended in 1×PBS to afford a solution concentrated 10-fold compared to the volume of the initial culture solution. CA was inoculated at a concentration of 1×10^5 CFU/ml and GV was inoculated at a concentration of 1×10^6 CFU/ml under individual culture conditions. The CFCS of lactic-acid bacteria was added in a volume corresponding to 0.1 times the final volume to the vaginitis-pathogen-inoculated solution so as to reach 1×, and the test group not added with CFCS was used as a control. The mixed composition was cultured for 24 hr for CA and 48 hr for GV under individual vaginitis-pathogen culture conditions, and the absorbance was measured at a wavelength of OD600. Based on the measured absorbance, growth inhibition was determined using the following cytotoxicity calculation equation. In this equation, ODcontrol represents the absorbance of the control, and ODcfcs represents the absorbance of the CFCS-added group. Growth inhibition (%)=(ODcontrol−ODcfcs)/ODcontrol×100

[9] = system: Gardnerella vaginalis KCTC5096 (GV); experiment: as above; conditions: CFCS at 1× concentration, culture for 48 hr, OD600
Procedure: as §2

[10] = system: Candida albicans KCTC7678 (CA); experiment: Coaggregation of lactic-acid bacteria on vaginitis pathogen; conditions: at 8 hr
Procedure: (§3) Briefly, lactic-acid bacteria and vaginitis pathogens were centrifuged at 13,000 rpm for 5 min and the supernatant was decanted, after which the precipitated microorganism cells were washed using 1×PBS. After washing was repeated twice, the microorganisms were each suspended using 1×PBS until an absorbance OD600 of 1.0 was obtained. The lactic-acid bacteria suspension and the vaginitis pathogens were mixed at the same volume ratio, homogenized through vortexing, and allowed to stand, after which the supernatant of the mixed solution was carefully obtained at 1, 4, and 8 hr, and the absorbance thereof was measured. The suspension without mixing the microorganisms was used as a control. Based on the measured absorbance, coaggregation was calculated using the following equation. Here, ODpatho represents the absorbance of the vaginitis pathogen, ODLAB represents the absorbance of the lactic-acid bacteria, and ODmix represents the absorbance of the mixed solution of microorganisms. Coaggregation (%)={(ODpatho+ODLAB)/2−ODmix}/(ODpatho+ODLAB)/2

[11] = system: Gardnerella vaginalis KCTC5096 (GV); experiment: as above; conditions: time given only for CA (8 hr)
Procedure: as §3

[12] = system: TNF-α in mouse macrophage cell line RAW264.7; experiment: TNF-α ELISA, RAW264.7 cells treated with lactic-acid bacteria lysate; conditions: lysate 100 μg/ml and 500 μg/ml, 24 hr
Procedure: In order to measure the immunological effects of K2, K6 and K8 lactic-acid bacteria, a cytokine quantification experiment using cells was performed. The cells that were used were a mouse macrophage cell line RAW264.7, and the medium used for each cell experiment was a Gibco® Dulbecco's Modified Eagle Medium (DMEM, Gibco, USA) supplemented with 10% fetal bovine serum (Gibco, USA) and 1% penicillin/streptomycin cocktail (Sigma-Aldrich, Germany). RAW264.7 cells cultured at about 80-90% confluency before material treatment were recovered and seeded in an amount of 1×10^6 cells per well of a 24-well plate. After seeding, culture was carried out in an environment of 37° C. and 5% CO2 for 24 hr in order to realize attachment to the 24-well plate and stabilization thereof. Each well was treated with the lactic-acid bacteria lysate at concentrations of 100 μg/ml and 500 μg/ml, and 1 μg/ml of lipopolysaccharide (LPS, Sigma-Aldrich, Germany) was used as a positive control, and an experimental group not treated with any material was used as a negative control. The cells were cultured at 37° C. and 5% CO2 for 24 hr after material treatment, and the cell culture solution was recovered, followed by enzyme-linked immunosorbent assay (ELISA) for IL-6 and TNF-α. Measurement was performed for IL-6 using a Mouse IL-6 Quantikine ELISA Kit (R&D systems, USA) and for TNF-α using a Mouse TNF-alpha Quantikine ELISA Kit (R&D systems, USA).

Row | Substance | diameter of the clear zone CS [1] [mm] | diameter of the clear zone EC [2] [mm] | diameter of the clear zone LM [3] [mm] | diameter of the clear zone PA [4] [mm] | diameter of the clear zone SA [5] [mm] | diameter of the clear zone SM [6] [mm] | diameter of the clear zone SS [7] [mm] | growth inhibition of CA [8] [%] | growth inhibition of GV [9] [%] | coaggregation with CA [10] [%] | coaggregation with GV [11] [%] | TNF-α production compared to the control [12]
1 | Lactobacillus plantarum ATG-K2 [Lb. plantarum ATG-K2] | 6.50 ± 0.18 | 3.38 ± 0.21 | 5.50 ± 0.18 | 3.75 ± 0.13 | 5.00 ± 0.18 | 4.75 ± 0.28 | 4.13 ± 0.11 | 87.05 | 37.49 | 70.73 | 32.72 | induced
2 | Lactobacillus plantarum ATG-K6 [Lb. plantarum ATG-K6] | 6.13 ± 0.11 | 3.50 ± 0.18 | 4.75 ± 0.13 | 4.00 ± 0.18 | 4.88 ± 0.21 | 4.13 ± 0.11 | 3.13 ± 0.11 | 82.11 | 28.25 | 58.57 | 30.39 | induced
3 | Lactobacillus plantarum ATG-K8 [Lb. plantarum ATG-K8] | 5.88 ± 0.11 | 3.50 ± 0.18 | 5.18 ± 0.21 | 3.88 ± 0.11 | 4.25 ± 0.13 | 3.88 ± 0.11 | 4.00 ± 0.18 | 81.34 | 44.60 | 57.88 | 20.45 | induced
